Laboratory results published in PubChem BioAssay (NCI).
Values joined by “and” are separate entries in the source; they are usually repeats but may differ in a detail not shown here. Equal values may be shown once.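 How tested: cells in 96-well plates exposed to compound for 48 hours at five concentrations. GI50 is the concentration that inhibits growth by half. TGI: total growth inhibition.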

How the values were obtained:
Assay in all cases: NCI tumour cell line growth inhibition, 48 h
A498 renal = tested on: A498 renal
HCT-15 colon = tested on: HCT-15 colon
MALME-3M melanoma = tested on: MALME-3M melanoma
MDA-MB-435 = tested on: MDA-MB-435
OVCAR-4 ovarian = tested on: OVCAR-4 ovarian
OVCAR-8 ovarian = tested on: OVCAR-8 ovarian
SNB-19 CNS = tested on: SNB-19 CNS
T-47D breast = tested on: T-47D breast
UO-31 renal = tested on: UO-31 renal
HL-60(TB) leukemia = tested on: HL-60(TB) leukemia

SMILES	GI50 (A498 renal) [µM]	TGI (A498 renal)	GI50 (HCT-15 colon)	TGI (HCT-15 colon)	GI50 (MALME-3M melanoma) [µM]	TGI (MALME-3M melanoma) [µM]	GI50 (MDA-MB-435) [µM]	TGI (MDA-MB-435) [µM]	GI50 (OVCAR-4 ovarian) [µM]	TGI (OVCAR-4 ovarian) [µM]	GI50 (OVCAR-8 ovarian) [µM]	TGI (OVCAR-8 ovarian) [µM]	GI50 (SNB-19 CNS) [µM]	TGI (SNB-19 CNS) [µM]	GI50 (T-47D breast) [µM]	TGI (T-47D breast) [µM]	GI50 (UO-31 renal)	TGI (UO-31 renal)	GI50 (HL-60(TB) leukemia) [µM]	TGI (HL-60(TB) leukemia)
O=C1OCC(c2ccc(O)cc2)=C1c1cc(O)c(O)c(O)c1	> 100	> 100 µM	> 100 µM	> 100 µM	> 100	> 100	26.4	53.8	> 100	> 100	> 100	> 100	> 100	> 100	> 100	> 100	> 100 µM	> 100 µM		
CCC#CC[C@H](O)C/C=C1/C(=O)C=C[C@@H]1C/C=C\CCCC(=O)OC	6.82	13.7 µM	1.17 µM	5.09 µM	1.88	8.42	1.5	5.92	2.25	8.64	1.24	4.76	3.29	10.3			0.864 µM	1.66 µM	1.31	3.91 µM
O=C(O)CNc1ccc(Cl)c(Cl)c1		86.5 µM		95.3 µM				79.2		> 100		85.4		> 100		> 100		71.1 µM		78.5 µM
CCCCCCCN(CCCCCCC)C(=N)c1ccnc2ccccc12			1.59 µM	3.04 µM	1.62	3.37	1.58	3.24	1.35	3.05	1.63	3.48	1.79	3.68	1.78	4.3	1.09 µM	2.41 µM	1.75	3.7 µM
Cc1cc(Br)cc(C)c1NC(=O)C(=O)C(C(=O)c1ccncc1)C1OC(=O)c2ccccc21 (stereo not given)		> 100 µM		> 100 µM		> 100				> 100		> 100		> 100				> 100 µM		> 100 µM
O=C(O)C(Br)C(Br)C(=O)O (stereo not given)		> 100 µM		> 100 µM		> 100		> 100		> 100		> 100		> 100				> 100 µM		> 100 µM
COc1cc(OC)cc(-c2nc3sccn3c2/C=N/N=C(N)N)c1	9.86	17.3 µM	8.1 µM	14.9 µM			8.71	16.1			9.85	20.8	9.29	19.3	7.23	17.6	15.8 µM	> 50 µM		
O=c1nc(NC(c2ccccc2)(c2ccccc2)c2ccccc2)ccn1CCCl		> 100 µM		> 100 µM		29.2				53.1		29.7		28.9				> 100 µM		54.9 µM
CC(=O)O[C@@]12CO[C@@H]1C[C@H](O)[C@@]1(C)C(=O)[C@H](O)C3=C(C)[C@@H](OC(=O)[C@H](O)[C@@H](NC(=O)OC(C)(C)C)c4ccccc4)C[C@@](O)([C@@H](OC(=O)c4ccccc4)C12)C3(C)C (stereo not given in full)		37 µM and 73.1 µM	0.0441 µM and 0.327 µM	50 µM and > 100 µM	11.3	29.6			12.6	> 100	< 0.005	50	0.031	> 100			0.372 µM and 0.192 µM	50 µM and 81.8 µM	< 0.005	0.0241 µM and 0.0348 µM
Cc1c(NC(=O)CCl)c(=O)oc2c(C)c3occc(=O)c3cc12		31.7 µM				44.4				25.6		43.2		33.6		66.3		22.4 µM		21.9 µM
CC(N)Cc1ccc(Cl)cc1 (stereo not given)		> 100 µM		> 100 µM		> 100				> 100		> 100		> 100				> 100 µM		> 100 µM
CCOc1cc(C(=O)O)c2c(ccc3ccc(OC)c(OC)c32)c1OC				> 100 µM		> 100		> 100		> 100		> 100		> 100		> 100		> 100 µM		> 100 µM
CCO/C(CCn1[nH]c(=O)c(Cl)c(Cl)c1=O)=N\NC(=O)C(=O)NN		> 100 µM		> 100 µM		> 100				> 100		> 100		> 100				> 100 µM		> 100 µM
O=c1cc(-c2ccccc2)oc2ccc(OC/C(=N/O)c3ccc(F)cc3)cc12			2.99 µM	14.5 µM			0.913	1.98	25.3	> 50	8.44	> 50	5.1	> 50			10.8 µM	> 50 µM	1.97	13.9 µM
O=C1CSC(c2ccc(-c3nc4ccccc4[nH]3)cc2)=N1			16.7 µM	> 50 µM			32.5	> 50			23	> 50	> 50	> 50	> 50	> 50	19.8 µM	> 50 µM	> 50	> 50 µM
CCCCCCCCCCCC[N+](C)(C)Cc1ccccc1	8.06	24.8 µM	13.1 µM	34.3 µM			1.58	3.72	1.82	7.68	2.16	6.75	2.11	7.12	2.68	15.5	10 µM	25.9 µM	1.02	2.85 µM
CC(=O)NNc1nc(C)c(C(/C=C/c2ccc([N+](=O)[O-])cc2)=N/NC(N)=O)s1		> 100 µM		> 100 µM		> 100		> 100		> 100		> 100		> 100		> 100		> 100 µM		
Cc1ccc(-c2c(C#N)[n+](=O)c3cc(F)c(F)cc3n2[O-])cc1	21.1	36.5 µM	1.2 µM	3.75 µM	2.06	5.23	2.27	5.95	21.4	41.2	20.8	40.3	18.6	34.9	28.4	67.5	9.79 µM	37.7 µM		
C/C(=N\NC(=O)CC#N)C(CN1CCCCC1)C(c1ccccc1)c1c(O)c2ccccc2oc1=O (stereo not given)		82.5 µM		> 100 µM		> 100		> 100		> 100		> 100		> 100				> 100 µM		63.3 µM
COc1ccc(OC)c(NC(=O)c2cccc(NC3=C(Cl)C(=O)N(Cc4ccccc4)C3=O)c2)c1			> 100 µM	> 100 µM	> 49.3	> 86.4	> 64.7	> 100	> 100	> 100	> 76.8	> 100	> 100	> 100	> 100	> 100	> 90.3 µM	> 100 µM	5.82	> 100 µM
Cc1c(N)nc([C@H](CC(N)=O)NC[C@H](N)C(N)=O)nc1C(=O)N[C@H](C(=O)N[C@H](C)[C@@H](O)CC(=O)N[C@H](C(=O)NC(O[C@@H]1O[C@@H](C)[C@@H](N)[C@@H](O)[C@H]1O)C(O)c1nc(-c2nc(C(=O)NCCCCN)cs2)cs1)[C@@H](C)O)[C@@H](O[C@@H]1O[C@@H](CO)[C@@H](O)[C@H](O)[C@@H]1O[C@H]1O[C@H](CO)[C@@H](O)[C@H](OC(N)=O)[C@@H]1O)c1c[nH]cn1 (stereo not given in full)		> 50 µM		> 50 µM				> 50		> 50		> 50		> 50		> 50		> 50 µM		> 50 µM
COc1cc2c3c(n(CCCCNC(=O)OC(C)(C)C)c(=O)c2cc1OC)-c1cc2c(cc1C3=O)OCO2	> 100	> 100 µM	> 100 µM	> 100 µM	> 100	> 100	> 100	> 100	> 100	> 100	> 100	> 100	> 100	> 100	> 100	> 100	> 100 µM	> 100 µM		
C#CCN(N=O)C(=O)NCCCCC(NC(=O)OCc1ccccc1)C(=O)OCc1ccccc1 (stereo not given)		> 100 µM		> 100 µM		71.6				> 100		> 100		> 100				> 100 µM		> 100 µM
CCN(CCCl)CCCCCNc1c2ccccc2nc2ccc(OC)cc12		3.52 µM		10.9 µM		5.93				3.42		1.96		3.78				12.7 µM		0.266 µM
CCN(CC)CCCOc1ccc2ncnc(Nc3ccc(Oc4cccc(C(F)(F)F)c4)c(Cl)c3)c2c1	0.229	3.56 µM			1.57	3.04	1.65	3.22	1.54	2.99					1.41	3.76	1.06 µM	2.26 µM		
